Experiments:
Assay in all cases: KinaseProfiler Assay
EphA1(h) = biological target: T1, EphA1(h) (Homo sapiens, UniProt P21709)
T1 sequence (P21709 26-976): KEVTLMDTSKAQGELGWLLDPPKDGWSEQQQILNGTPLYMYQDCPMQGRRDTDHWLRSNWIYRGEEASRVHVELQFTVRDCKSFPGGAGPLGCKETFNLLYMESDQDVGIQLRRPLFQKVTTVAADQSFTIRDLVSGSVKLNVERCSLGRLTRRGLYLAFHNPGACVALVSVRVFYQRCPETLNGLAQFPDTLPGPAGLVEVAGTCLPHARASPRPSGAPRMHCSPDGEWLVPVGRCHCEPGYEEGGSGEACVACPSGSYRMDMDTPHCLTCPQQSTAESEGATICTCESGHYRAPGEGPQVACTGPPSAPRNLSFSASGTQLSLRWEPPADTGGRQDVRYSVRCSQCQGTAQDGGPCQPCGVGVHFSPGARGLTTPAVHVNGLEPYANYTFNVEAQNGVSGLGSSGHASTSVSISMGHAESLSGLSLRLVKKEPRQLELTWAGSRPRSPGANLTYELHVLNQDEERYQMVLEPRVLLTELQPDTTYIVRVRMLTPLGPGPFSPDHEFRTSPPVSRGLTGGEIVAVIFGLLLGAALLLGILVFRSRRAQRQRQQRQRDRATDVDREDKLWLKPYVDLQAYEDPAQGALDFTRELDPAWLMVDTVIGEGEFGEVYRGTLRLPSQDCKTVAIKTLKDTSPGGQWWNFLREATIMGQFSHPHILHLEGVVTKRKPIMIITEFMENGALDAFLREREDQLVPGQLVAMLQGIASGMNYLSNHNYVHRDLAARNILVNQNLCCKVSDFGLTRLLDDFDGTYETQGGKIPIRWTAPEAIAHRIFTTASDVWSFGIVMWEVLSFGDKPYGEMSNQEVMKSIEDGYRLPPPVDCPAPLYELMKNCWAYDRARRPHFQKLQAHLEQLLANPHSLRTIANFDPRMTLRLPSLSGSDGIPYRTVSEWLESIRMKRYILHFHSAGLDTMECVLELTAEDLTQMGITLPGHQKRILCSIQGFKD

PI 3-Kinaseδ(h) = biological target: PI 3-Kinaseδ(h)
PDGFRα(V561D)(h) = PDGFRα(V561D)(h) (Homo sapiens, UniProt P16234, V561D)
PDGFRα(V561D)(h), sequence (P16234 24-1089 V561D): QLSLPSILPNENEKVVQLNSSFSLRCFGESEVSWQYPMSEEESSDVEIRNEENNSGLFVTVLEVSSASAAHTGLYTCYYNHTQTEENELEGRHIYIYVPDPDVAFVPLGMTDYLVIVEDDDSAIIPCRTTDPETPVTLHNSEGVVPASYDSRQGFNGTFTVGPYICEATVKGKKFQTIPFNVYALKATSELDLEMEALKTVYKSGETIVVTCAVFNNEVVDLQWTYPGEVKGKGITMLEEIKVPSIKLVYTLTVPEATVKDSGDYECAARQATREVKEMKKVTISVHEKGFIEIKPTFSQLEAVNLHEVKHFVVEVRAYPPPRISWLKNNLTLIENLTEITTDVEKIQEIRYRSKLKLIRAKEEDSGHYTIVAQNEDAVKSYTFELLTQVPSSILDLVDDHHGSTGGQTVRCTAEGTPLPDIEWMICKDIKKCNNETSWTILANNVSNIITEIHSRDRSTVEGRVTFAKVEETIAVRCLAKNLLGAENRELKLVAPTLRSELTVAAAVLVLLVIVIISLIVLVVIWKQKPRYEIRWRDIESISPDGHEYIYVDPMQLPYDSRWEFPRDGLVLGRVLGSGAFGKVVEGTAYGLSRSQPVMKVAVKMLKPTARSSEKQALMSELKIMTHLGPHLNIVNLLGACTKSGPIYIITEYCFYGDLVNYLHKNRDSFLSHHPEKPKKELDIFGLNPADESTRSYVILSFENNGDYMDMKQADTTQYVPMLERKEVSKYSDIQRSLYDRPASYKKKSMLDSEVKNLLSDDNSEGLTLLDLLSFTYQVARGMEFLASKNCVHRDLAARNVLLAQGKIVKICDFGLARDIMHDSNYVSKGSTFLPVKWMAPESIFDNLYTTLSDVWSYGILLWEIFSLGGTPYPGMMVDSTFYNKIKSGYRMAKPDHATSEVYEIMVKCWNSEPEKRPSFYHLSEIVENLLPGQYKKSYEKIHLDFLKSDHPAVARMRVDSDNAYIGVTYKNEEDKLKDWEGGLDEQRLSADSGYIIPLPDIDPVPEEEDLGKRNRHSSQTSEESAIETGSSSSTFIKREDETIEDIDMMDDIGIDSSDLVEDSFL

PKCγ(h) = PKCγ(h) (Homo sapiens, UniProt P05129)
TSSK1(h) = biological target: T2, TSSK1(h) (Homo sapiens, UniProt Q9BXA7)
T2 sequence (Q9BXA7 1-367): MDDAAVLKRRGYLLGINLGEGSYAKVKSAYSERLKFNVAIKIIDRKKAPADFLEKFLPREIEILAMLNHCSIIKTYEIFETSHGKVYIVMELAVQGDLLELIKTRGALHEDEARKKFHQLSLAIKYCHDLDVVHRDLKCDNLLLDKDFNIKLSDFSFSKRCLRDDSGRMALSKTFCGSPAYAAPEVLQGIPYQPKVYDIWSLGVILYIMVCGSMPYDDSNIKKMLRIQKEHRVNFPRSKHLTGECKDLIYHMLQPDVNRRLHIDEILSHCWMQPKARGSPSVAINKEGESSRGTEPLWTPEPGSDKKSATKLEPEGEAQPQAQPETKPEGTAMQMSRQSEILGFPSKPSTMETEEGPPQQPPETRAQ

WNK3(h) = WNK3(h) (Homo sapiens, UniProt Q9BYP7)
WNK3(h), sequence (Q9BYP7 whole entry): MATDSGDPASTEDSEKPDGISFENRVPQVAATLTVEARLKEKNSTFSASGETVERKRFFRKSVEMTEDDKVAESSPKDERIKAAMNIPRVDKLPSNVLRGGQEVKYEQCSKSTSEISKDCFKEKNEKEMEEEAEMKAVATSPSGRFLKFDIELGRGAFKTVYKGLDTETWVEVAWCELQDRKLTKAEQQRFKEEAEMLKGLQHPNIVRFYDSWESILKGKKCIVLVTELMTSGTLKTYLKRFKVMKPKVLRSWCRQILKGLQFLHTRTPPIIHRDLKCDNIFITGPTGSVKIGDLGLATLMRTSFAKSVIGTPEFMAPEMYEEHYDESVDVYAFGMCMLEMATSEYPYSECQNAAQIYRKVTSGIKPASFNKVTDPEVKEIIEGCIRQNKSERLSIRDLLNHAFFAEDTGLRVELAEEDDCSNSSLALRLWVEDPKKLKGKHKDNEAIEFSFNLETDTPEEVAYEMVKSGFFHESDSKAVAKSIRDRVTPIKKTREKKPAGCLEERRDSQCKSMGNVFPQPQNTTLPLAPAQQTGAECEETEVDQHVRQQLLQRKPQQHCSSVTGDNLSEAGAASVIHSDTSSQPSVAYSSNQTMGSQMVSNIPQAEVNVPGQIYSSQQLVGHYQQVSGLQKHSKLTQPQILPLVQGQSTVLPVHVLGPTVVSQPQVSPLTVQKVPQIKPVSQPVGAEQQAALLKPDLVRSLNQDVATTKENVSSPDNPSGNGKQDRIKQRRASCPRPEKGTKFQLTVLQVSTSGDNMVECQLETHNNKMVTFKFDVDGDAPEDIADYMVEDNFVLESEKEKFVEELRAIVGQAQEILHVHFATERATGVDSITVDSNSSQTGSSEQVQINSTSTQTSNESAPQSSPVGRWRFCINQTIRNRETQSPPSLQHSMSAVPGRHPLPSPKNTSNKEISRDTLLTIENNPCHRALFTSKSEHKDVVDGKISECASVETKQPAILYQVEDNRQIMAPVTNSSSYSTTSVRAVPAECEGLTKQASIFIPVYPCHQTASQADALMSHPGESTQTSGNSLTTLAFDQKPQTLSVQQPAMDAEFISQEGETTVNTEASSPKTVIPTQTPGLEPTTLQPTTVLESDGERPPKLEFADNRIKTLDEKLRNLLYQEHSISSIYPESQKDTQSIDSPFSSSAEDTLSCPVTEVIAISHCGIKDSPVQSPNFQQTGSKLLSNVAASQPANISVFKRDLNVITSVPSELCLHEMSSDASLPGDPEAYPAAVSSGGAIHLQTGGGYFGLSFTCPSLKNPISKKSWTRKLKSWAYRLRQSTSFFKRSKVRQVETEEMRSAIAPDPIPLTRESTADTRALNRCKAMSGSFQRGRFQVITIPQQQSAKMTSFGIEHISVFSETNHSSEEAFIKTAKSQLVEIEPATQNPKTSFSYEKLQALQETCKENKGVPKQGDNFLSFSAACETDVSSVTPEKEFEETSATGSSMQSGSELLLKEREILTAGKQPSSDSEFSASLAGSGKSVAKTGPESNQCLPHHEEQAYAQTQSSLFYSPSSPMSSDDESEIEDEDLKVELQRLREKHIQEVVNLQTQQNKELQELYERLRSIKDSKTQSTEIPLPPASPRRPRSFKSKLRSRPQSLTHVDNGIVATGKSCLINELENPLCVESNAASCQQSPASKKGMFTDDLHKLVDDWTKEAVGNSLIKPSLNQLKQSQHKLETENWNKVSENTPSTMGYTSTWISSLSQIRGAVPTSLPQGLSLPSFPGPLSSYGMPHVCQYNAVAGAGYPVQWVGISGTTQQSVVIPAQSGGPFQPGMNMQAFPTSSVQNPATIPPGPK

CDK2/cyclinA(h) = CDK2/cyclinA(h) (Homo sapiens, UniProt P24941)
cKit(V654A)(h) = cKit(V654A)(h) (Homo sapiens, UniProt P10721, V654A)
cKit(V654A)(h), sequence (P10721 26-976 V654A): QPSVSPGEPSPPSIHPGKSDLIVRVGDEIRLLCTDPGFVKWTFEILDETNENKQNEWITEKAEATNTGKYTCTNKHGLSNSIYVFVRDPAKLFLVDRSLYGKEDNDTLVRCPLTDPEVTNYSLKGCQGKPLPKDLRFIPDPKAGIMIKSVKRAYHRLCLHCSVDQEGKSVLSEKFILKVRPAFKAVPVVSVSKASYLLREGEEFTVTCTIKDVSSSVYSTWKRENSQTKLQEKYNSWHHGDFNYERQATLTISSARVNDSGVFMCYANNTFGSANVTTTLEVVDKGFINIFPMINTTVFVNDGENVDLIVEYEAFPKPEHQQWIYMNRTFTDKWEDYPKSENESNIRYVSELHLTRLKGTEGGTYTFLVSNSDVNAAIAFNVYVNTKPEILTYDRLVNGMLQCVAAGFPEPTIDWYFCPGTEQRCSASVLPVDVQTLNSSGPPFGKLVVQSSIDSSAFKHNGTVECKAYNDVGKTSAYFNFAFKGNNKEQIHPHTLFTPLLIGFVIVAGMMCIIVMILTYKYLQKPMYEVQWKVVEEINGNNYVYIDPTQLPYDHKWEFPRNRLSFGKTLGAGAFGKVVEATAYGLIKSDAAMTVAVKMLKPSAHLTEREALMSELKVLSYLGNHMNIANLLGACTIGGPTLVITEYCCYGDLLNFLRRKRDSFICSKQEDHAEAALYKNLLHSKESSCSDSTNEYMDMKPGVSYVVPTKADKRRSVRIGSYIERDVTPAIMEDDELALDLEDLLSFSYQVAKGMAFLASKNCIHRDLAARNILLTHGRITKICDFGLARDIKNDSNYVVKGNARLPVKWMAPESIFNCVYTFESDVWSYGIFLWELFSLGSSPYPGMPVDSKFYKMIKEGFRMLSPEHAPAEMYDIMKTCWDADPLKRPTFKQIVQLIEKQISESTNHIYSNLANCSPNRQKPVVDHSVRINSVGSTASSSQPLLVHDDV

CaMKII(r) = biological target: CaMKII(r)

CC(C)CCC(=O)[C@]1(O)C(O)=C(C(=O)C(C)C)C(=O)[C@H]1CCC(C)C [TH2, tetrahydroiso-cohumulone]
kinase inhibition (EphA1(h); 1 μg/ml): 117% of control
kinase inhibition (EphA1(h); 5 μg/ml): 116% of control
kinase inhibition (EphA1(h); 25 μg/ml): 108% of control
kinase inhibition (EphA1(h); 50 μg/ml): 99% of control
kinase inhibition (EphA1(h); 100 μg/ml): 85% of control
kinase inhibition (PI 3-Kinaseδ(h); 1 μg/ml): 95% of control
kinase inhibition (PI 3-Kinaseδ(h); 5 μg/ml): 100% of control
kinase inhibition (PI 3-Kinaseδ(h); 25 μg/ml): 72% of control
kinase inhibition (PI 3-Kinaseδ(h); 50 μg/ml): 42% of control
kinase inhibition (PI 3-Kinaseδ(h); 100 μg/ml): 19% of control
kinase inhibition (PDGFRα(V561D)(h); 1 μg/ml): 115% of control
kinase inhibition (PDGFRα(V561D)(h); 5 μg/ml): 126% of control
kinase inhibition (PDGFRα(V561D)(h); 25 μg/ml): 116% of control
kinase inhibition (PDGFRα(V561D)(h); 50 μg/ml): 111% of control
kinase inhibition (PDGFRα(V561D)(h); 100 μg/ml): 103% of control
kinase inhibition (PKCγ(h); 1 μg/ml): 102% of control
kinase inhibition (PKCγ(h); 5 μg/ml): 107% of control
kinase inhibition (PKCγ(h); 25 μg/ml): 101% of control
kinase inhibition (PKCγ(h); 50 μg/ml): 91% of control
kinase inhibition (PKCγ(h); 100 μg/ml): 99% of control
kinase inhibition (TSSK1(h); 1 μg/ml): 105% of control
kinase inhibition (TSSK1(h); 5 μg/ml): 97% of control
kinase inhibition (TSSK1(h); 25 μg/ml): 96% of control
kinase inhibition (TSSK1(h); 50 μg/ml): 91% of control
kinase inhibition (TSSK1(h); 100 μg/ml): 86% of control
kinase inhibition (WNK3(h); 1 μg/ml): 111% of control
kinase inhibition (WNK3(h); 5 μg/ml): 113% of control
kinase inhibition (WNK3(h); 25 μg/ml): 109% of control
kinase inhibition (WNK3(h); 50 μg/ml): 113% of control
kinase inhibition (WNK3(h); 100 μg/ml): 111% of control
kinase inhibition (CDK2/cyclinA(h); 1 μg/ml): 114% of control
kinase inhibition (CDK2/cyclinA(h); 5 μg/ml): 124% of control
kinase inhibition (CDK2/cyclinA(h); 25 μg/ml): 95% of control
kinase inhibition (CDK2/cyclinA(h); 50 μg/ml): 98% of control
kinase inhibition (CDK2/cyclinA(h); 100 μg/ml): 87% of control
kinase inhibition (cKit(V654A)(h); 1 μg/ml): 100% of control
kinase inhibition (cKit(V654A)(h); 5 μg/ml): 101% of control
kinase inhibition (cKit(V654A)(h); 25 μg/ml): 112% of control
kinase inhibition (cKit(V654A)(h); 50 μg/ml): 88% of control
kinase inhibition (cKit(V654A)(h); 100 μg/ml): 75% of control
kinase inhibition (CaMKII(r); 1 μg/ml): 105% of control
kinase inhibition (CaMKII(r); 5 μg/ml): 106% of control
kinase inhibition (CaMKII(r); 25 μg/ml): 105% of control
kinase inhibition (CaMKII(r); 50 μg/ml): 91% of control
kinase inhibition (CaMKII(r); 100 μg/ml): 63% of control

— US20100137449A1, “SUBSTITUTED 1,3-CYCLOPENTADIONE MULTI-TARGET PROTEIN KINASE MODULATORS OF CANCER, ANGIOGENESIS AND THE INFLAMMATORY PATHWAYS ASSOCIATED THEREWITH” (METAPROTEOMICS, LLC, priority 2007, published 2010)
